These results are taken from US20070259055A1, “Method of deactivating dust mite allergens” (priority 2000, published 2007).

The target of the assay is T1, house dust mite (Dermatophagoides pteronyssinus) allergen (Der-pl) (Dermatophagoides pteronyssinus, UniProt P08176).
T1 construct: Test dust had been obtained from household vacuum cleaner bags; from tissue; host or cells: house dust (British; vacuum cleaner bags), sieved fraction smaller than 53 microns
T1 sequence (P08176 99-320): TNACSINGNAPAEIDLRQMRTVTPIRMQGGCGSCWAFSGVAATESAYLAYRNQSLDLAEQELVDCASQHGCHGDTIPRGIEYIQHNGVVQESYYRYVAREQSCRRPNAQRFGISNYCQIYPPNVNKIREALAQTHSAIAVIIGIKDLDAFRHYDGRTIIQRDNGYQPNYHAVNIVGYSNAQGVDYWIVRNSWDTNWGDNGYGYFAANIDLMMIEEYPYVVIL
The assay can be described thus: Example 3: test liquid sprayed onto dust in petri dish, Der-pl ELISA. Type of assay: biochemical. How it is done: Dust was collected from vacuum cleaner bags and passed through a series of sieves down to 53 microns. Clean petri dishes were labeled with the chemical to be tested and lined with filter paper. 0.3 g of dust was added to each dish and spread evenly over the filter paper. 0.1 g of dust was then removed from the filter paper for a control sample. The remaining dust was then redistributed evenly over the filter paper. 2.4 g+/−0.2 g of test chemical was sprayed onto the dust sample. The dust sample was left open to the air until the filter paper was dry. The dust was collected into eppendorfs and the weight of dust recovered was measured. 1 ml of 1% Bovine Serum Albumin-Phosphate Buffered Saline-Tween (BSA-PBS-T) was added to the control samples. 1 ml of 5% BSA-PBS-T was added to the test samples. The samples were left overnight in the refrigerator and then centrifuged for 5 minutes at 13,000 rpm. The supernatant was pipetted into an eppendorf for assay by Der-pl ELISA.
The test liquids were: • Distilled water • 2% Tea Tree Oil in distilled water (plus 0.1% Tween) • 2% Citronella Oil in distilled water (plus 0.10% Tween) • 1% Thymol in distilled water (plus 0.8% Tween) • 2% Hinoki Oil in distilled water (plus 0.1% Tween) • 2% Tannic Acid
Five replicates were completed for each test liquid. The allergen content of the control for each replicate was compared with the test sample allergen. The percentage reductions in allergen between the control and the test were determined for each replicate.
A general note: In an ELISA, binding on a coated surface is turned into a signal by an enzyme label.

Take `Cc1ccc(C(C)C)c(O)c1` [Thymol, 6-isopropyl-m-cresol]: under “test liquid sprayed onto dust (2% Tea Tree Oil or 1% Thymol in distilled water plus Tween), average of five replicates, water alone 34.2%”, the “allergen reduction more than the water alone tests” value is reported as 23.6%. Moreover, for the setting “test liquid sprayed onto dust, t-test versus water”, the “significance of allergen reduction versus water tests” value is “significant”.

Consider `O=C(OC[C@H]1O[C@@H](OC(=O)c2cc(O)c(O)c(OC(=O)c3cc(O)c(O)c(O)c3)c2)[C@H](OC(=O)c2cc(O)c(O)c(OC(=O)c3cc(O)c(O)c(O)c3)c2)[C@@H](OC(=O)c2cc(O)c(O)c(OC(=O)c3cc(O)c(O)c(O)c3)c2)[C@@H]1OC(=O)c1cc(O)c(O)c(OC(=O)c2cc(O)c(O)c(O)c2)c1)c1cc(O)c(O)c(OC(=O)c2cc(O)c(O)c(O)c2)c1` [tannic acid], for which the average allergen reduction (2% Tannic Acid sprayed onto dust, positive control, five replicates) is listed as 99.15%.
